Laboratory results reported in US5298521A, “1,5-diphenyl-3-pyrazolylalkyl-N-hydroxydithiocaramates, compositions and use” (Ortho Pharmaceutical Corporation, priority 1993, dated 1994).

Columns and labels:
[1] = target: T1, Sheep seminal vesicle cyclooxygenase (Ovis aries, UniProt P05979); assay: Sheep seminal vesicle cyclooxygenase (Procedure I); assay type: biochemical; details: read-out: PROC. I % INHIB CO
T1 construct: Sheep seminal vesicle (SSV) cyclooxygenase (95% pure); purchased Biomol (Plymouth Meeting, Pa.); host or cells: sheep seminal vesicle
T1 sequence (P05979 25-600): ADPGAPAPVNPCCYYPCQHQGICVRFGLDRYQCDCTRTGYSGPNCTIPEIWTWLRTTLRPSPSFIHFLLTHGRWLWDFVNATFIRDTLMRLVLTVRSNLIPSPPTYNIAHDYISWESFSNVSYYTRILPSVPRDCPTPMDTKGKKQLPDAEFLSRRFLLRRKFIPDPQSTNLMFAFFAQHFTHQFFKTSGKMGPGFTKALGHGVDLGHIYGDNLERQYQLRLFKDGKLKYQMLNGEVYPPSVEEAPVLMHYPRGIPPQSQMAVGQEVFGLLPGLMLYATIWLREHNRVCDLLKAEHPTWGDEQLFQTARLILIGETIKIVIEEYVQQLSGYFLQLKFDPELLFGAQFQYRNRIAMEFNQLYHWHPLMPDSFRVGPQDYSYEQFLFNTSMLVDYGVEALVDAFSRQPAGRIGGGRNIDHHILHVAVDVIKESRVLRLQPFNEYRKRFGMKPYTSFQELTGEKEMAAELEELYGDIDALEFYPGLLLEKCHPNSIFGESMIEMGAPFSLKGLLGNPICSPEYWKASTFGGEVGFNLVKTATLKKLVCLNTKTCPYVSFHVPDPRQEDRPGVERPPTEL
Protocol: Sheep seminal vesicle cyclooxygenase Sheep seminal vesicle (SSV) cyclooxygenase (95% pure, prostaglandin endoperoxide synthase, EC 1.14.99.1 specific activity 24 units/mg protein) obtained as a lyophilized powder from Biomol (Plymouth Meeting, Pa.) was reconstituted at a concentration of 59 mg/mL in Hanks' Balanced Salt Solution (HBSS). The enzyme was divided into 200 μL aliquots, snap frozen with liquid N2, and stored at -70° C. unitl immediately prior to use. Measurements of CO activity were carried out in polypropylene tubes containing 495 μL of HBSS to which was added 5 μL of inhibitor or dimethylsulfoxide (DMSO; vehicle control) and 6 μL of SSV CO solution. The tubes were mixed on a vortex shaker, preincubated for 5 min at 37° C. prior to the initiation of the reaction. The reaction was started by the addition of [^14 C]-arachidonic acid (1-^14 C-AA, Amersham, Arlington Heights, Il) in 10 μL of methanol. Tubes were again vortexed and incubated in a water bath for 20 minutes after which the tubes were removed and the reaction stopped by acidification with the addition of 1 mL 2M formic acid. Lipophilic products were extracted with 3 mL chloroform and concentrated to dryness under N2. Each pellet was reconstituted with 40 μL of chloroform and spotted on a Whatman Silicon thin-layer chromatography plate and developed in a chromatography tank containing A-9 solvent (11:5:2:1 V:V:V:V, ethyl acetate:trimethylpentane:acetic acid:double distilled-H2 O). Radioactive cyclooxygenase products (prostaglandin D2, prostaglandin E2, etc.) were measured using a Bioscan System 200 Imaging Scanner. Inhibition of enzyme activity was calculated by comparing the areas under the curve produced in the presence or absence of test compound.

[2] = target: T2, RBL-1 cell cyclooxygenase (Rattus norvegicus, UniProt Q63921); assay: RBL-1 cell cyclooxygenase, cell homogenate supernatant (Procedure II); assay type: biochemical; details: RBL-1 homogenate; for inhibition at 3 µM: read-out: PROC. II % INHIBITION CO; for IC50: read-out: PROC. II IC50 CO
T2 construct: the supernatant was saved as the source of enzymes; endogenous in cells; host or cells: RBL-1 rat basophilic leukemia cells, homogenate supernatant
T2 sequence (Q63921 27-602): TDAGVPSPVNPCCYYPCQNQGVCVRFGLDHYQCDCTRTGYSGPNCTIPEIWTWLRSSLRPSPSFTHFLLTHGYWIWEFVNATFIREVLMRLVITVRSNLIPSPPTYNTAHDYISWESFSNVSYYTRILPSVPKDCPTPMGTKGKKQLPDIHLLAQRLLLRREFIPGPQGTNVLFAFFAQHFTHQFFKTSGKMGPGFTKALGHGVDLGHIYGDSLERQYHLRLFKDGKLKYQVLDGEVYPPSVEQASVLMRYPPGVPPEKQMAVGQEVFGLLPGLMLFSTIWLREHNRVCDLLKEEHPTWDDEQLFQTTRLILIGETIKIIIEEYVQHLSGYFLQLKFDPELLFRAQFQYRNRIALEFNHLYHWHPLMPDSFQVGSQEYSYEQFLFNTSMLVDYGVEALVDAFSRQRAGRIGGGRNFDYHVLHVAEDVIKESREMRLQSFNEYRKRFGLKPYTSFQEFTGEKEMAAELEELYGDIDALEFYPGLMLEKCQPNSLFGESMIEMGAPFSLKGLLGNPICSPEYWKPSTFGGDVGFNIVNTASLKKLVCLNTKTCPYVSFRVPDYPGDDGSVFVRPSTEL
Protocol: RBL-1 cell 5-lipoxygenase and cyclooxygenase
Rat basophilic leukemia cells (RBL-1; 5×10^7 viable cells/mL) were disrupted by homogenization on ice (four 20 sec bursts) with a Brinkman polytron. Complete cell breakage was verified microscopically. The homogenate was then centrifuged at 10,000×g for 48 minutes at 4° C. The pellet was discarded and the supernatant was saved as the source of enzymes. The supernatant was pre-incubated for five minutes at 37° C. in the presence of 2 mM of CaCl2 and compound or vehicle (1% DMSO). The conversion of AA into 5-LO products was initiated by adding 10 μL (50 μCi) of 1-^14 C-AA to each tube and incubated at 37° C. for 20 minutes. The reaction was stopped by adjusting the pH of each sample to 3 to 3.5 with 2M formic acid. Samples were extracted with three volumes of chloroform to isolate the products of 5-LO formed during the reaction. Fractions were dried under nitrogen, then resuspended in 40 μL of chloroform and spotted onto silica gel HL plates. The plates were developed in A-9 solvent. The dried plates were analyzed using a Bioscan Imaging TLC scanner to determine the percentage of radiolabelled AA converted to 5-HETE in each sample.

Row | Compound | inhibition at 3 µM [1] [%] | inhibition at 3 µM [2] [%] | IC50 [2] [nM]
1 | COc1ccc(-n2nc(CSC(=S)N(O)C(C)C)cc2-c2ccc(Cl)cc2)cc1 [1-B] | 39 | 100 | 8070
2 | COc1ccc(-n2nc(CSC(=S)N(O)C(C)C)c(Br)c2-c2ccc(Cl)cc2)cc1 [1-E] | 0 | 0 | 1960
3 | COc1ccc(-n2nc(CSC(=S)N(O)C(C)C)cc2-c2ccc(C)cc2)cc1 [1-G] | 36 | 30 | 30

Other lines, results leading:

Row | inhibition at 3 µM [1] [%] | inhibition at 3 µM [2] [%] | IC50 [2] [nM] | Compound
4 | 46 | 75 |  | COc1ccc(-n2nc(CSC(=S)N(C)O)c(Cl)c2-c2ccc(Cl)cc2)cc1 [1-C]
5 | 31 | 0 | 1670 | COc1ccc(-n2nc(CSC(=S)N(O)C(C)C)c(Cl)c2-c2ccc(Cl)cc2)cc1 [1-D]
6 | 39 | 95 |  | COc1ccc(-n2nc(CSC(=S)N(C)O)c(Cl)c2-c2ccc(C)cc2)cc1 [1-H]
